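Tested at 5 concentrations; 48 h exposure; 96-well plates; endpoints linearly interpolated, else capped at highest concentration. GI50 = concentration required for 50% inhibition of growth.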 Calls of active or inactive are those of the source. Rule as the data show it: active = GI50 up to about 1.1 µM and inactive = higher.
Tests used:
Assay in all cases: NCI tumour cell line growth inhibition, 48 h
KM-20L2 = test system: KM-20L2
XF498 = test system: XF498
DLD-1 = test system: DLD-1
RXF 631 = test system: RXF 631
DMS-114 = test system: DMS-114
DMS-273 = test system: DMS-273
M19-MEL = test system: M19-MEL

Measured: GI50

C/C(CC(=O)Nc1cccc([N+](=O)[O-])c1)=N\NC(=O)CC#N
inactive: KM-20L2 > 100 µM | XF498 > 100 µM | DLD-1 > 100 µM | RXF 631 > 100 µM | DMS-114 > 100 µM | DMS-273 > 100 µM

CN(C)C(=N)NC(=S)N(C)C
inactive: M19-MEL > 100 µM | KM-20L2 > 100 µM | XF498 > 100 µM | DLD-1 > 100 µM | RXF 631 > 100 µM | DMS-114 > 100 µM | DMS-273 > 100 µM

COC(=O)C1(c2ccc(OC)cc2)NC(c2ccccc2)C2C(=O)N(c3ccc(OC)cc3)C(=O)C21 (configuration not stated)
inactive: KM-20L2 > 100 µM | XF498 > 100 µM | DLD-1 > 100 µM | RXF 631 > 100 µM | DMS-114 > 100 µM | DMS-273 > 100 µM

Clc1ccc(Cl)c2[s+]snc12
inactive: M19-MEL 54.7 µM | KM-20L2 > 100 µM | XF498 > 100 µM | DLD-1 44.6 µM | RXF 631 > 94.6 µM | DMS-114 24.9 µM | DMS-273 27 µM

CC(=O)OC1CC[C@@]2(C)C(CC(OC3OC(CO)C(O)C(O)C3O)[C@]3(C)C2CCC24CC23CC[C@H]4C(C)CC(O)[C@@H](O)C(C)(C)O)C1(C)C (some centres not stated)
inactive: M19-MEL 8.07 µM | KM-20L2 19.9 µM | DLD-1 15.5 µM | RXF 631 29 µM | DMS-114 10.8 µM | DMS-273 18.2 µM

O=C(Cc1nc2ccc(C(=O)c3ccccc3)cc2nc1O)C(=O)Nc1ccc(C(F)(F)F)cc1[N+](=O)[O-]
inactive: M19-MEL 58.1 µM | KM-20L2 56.4 µM | XF498 27.5 µM | DLD-1 > 100 µM | RXF 631 96.6 µM | DMS-273 99.1 µM

COc1ccc(C(=O)Cc2ccc(Br)cc2)cc1OC
inactive: M19-MEL > 100 µM | KM-20L2 > 100 µM | XF498 31.7 µM | DLD-1 > 100 µM | RXF 631 57.4 µM | DMS-114 > 100 µM | DMS-273 > 100 µM

N#CC1=C(c2ccccc2)NNC(c2ccc(Cl)cc2)CC1=O (configuration not stated)
inactive: KM-20L2 24 µM | XF498 26.2 µM | DLD-1 32.4 µM | RXF 631 > 10 µM | DMS-114 82.2 µM

C/C(=N/Nc1ccc([N+](=O)[O-])cc1[N+](=O)[O-])C(CC(C(=O)NCc1ccccc1)/C(C)=N\Nc1ccc([N+](=O)[O-])cc1[N+](=O)[O-])C(=O)NCc1ccccc1 (configuration not stated)
inactive: M19-MEL 11.5 µM | KM-20L2 14.2 µM | DLD-1 12.1 µM | RXF 631 4.29 µM | DMS-114 9.91 µM | DMS-273 8.02 µM

c1ccc2c(c1)[nH]c1c2ncc2[nH]c3ccccc3c21
inactive: M19-MEL 5.35 µM | KM-20L2 3.71 µM | XF498 1.78 µM | DLD-1 3.44 µM | RXF 631 2.16 µM | DMS-114 2.44 µM | DMS-273 2.45 µM

N#COc1ccc(Oc2ccc(OC#N)cc2)cc1
inactive: M19-MEL > 100 µM | KM-20L2 > 100 µM | XF498 > 100 µM | DLD-1 63 µM | RXF 631 17.1 µM | DMS-114 32.1 µM

Cc1ccccc1NC(=O)C1C(=O)N(c2ccccc2C)C(=O)/C1=N\NC(N)=S (configuration not stated)
inactive: KM-20L2 > 100 µM | XF498 > 100 µM | DLD-1 > 100 µM | RXF 631 > 100 µM | DMS-273 > 100 µM

COc1ccc(-c2nc(Sc3c([N+](=O)[O-])ncn3C)n[nH]2)cc1
inactive: M19-MEL 4.9 µM | XF498 2.98 µM | DLD-1 2.49 µM | RXF 631 3.3 µM | DMS-114 2.41 µM | DMS-273 2.18 µM

O=C1CN=C(c2ccccc2)c2ccncc2N1
inactive: M19-MEL > 100 µM | KM-20L2 > 100 µM | XF498 > 100 µM | DLD-1 > 100 µM | RXF 631 > 100 µM | DMS-114 > 100 µM | DMS-273 > 100 µM
